# Test: Study HDP-CDV-201: safety and tolerability (adverse events, laboratory abnormalities, discontinuations)
# Assay type: in vivo, human (adult allogeneic HSCT recipients)
# Conditions: Cohort 4A
# Protocol: Clinical Studies of HDP-CDV were performed and described in detail in the following Examples. For example, HDP-CDV-201 is a placebo-controlled, dose-escalating trial in HSCT CMV (R+) recipients, evaluating the ability of HDP-CDV to prevent or control CMV infection was carried out. Five cohorts were established in which participants or subjects received either placebo or the HDP-CDV orally, in doses ranging from 40 mg weekly (QW) to 200 mg twice weekly (BIW). Subjects who were post-HSCT were enrolled at the time of engraftment and randomized to HDP-CDV or placebo (3 to 1 ratio) and received blinded therapy until approximately 100 day post-transplantation. HDP-CDV doses were 40 mg QW, 100 mg QW, 200 mg QW, 200 mg BIW and 100 mg BIW. Escalation to the next dose was decided by the data monitoring committee after review of the safety data from the previous Cohort. Subjects who developed CMV disease or CMV infection requiring pre-emptive therapy with local standard of care were discontinued from blinded therapy and followed for 4 weeks. Subjects who completed treatment with blinded therapy were followed for 8 weeks post-therapy.
# Data from Study HDP-CDV-201 also provided characterization of the safety and tolerability profile of HDP-CDV when administered for the prevention or control of CMV infection in high risk (R^+) post-HSCT adult subjects.
# The Safety population (SAFETY) included all randomized subjects who took at least one dose of study treatment. This population was used to summarize safety outcomes based on the treatment actually received, in cases where a subject was treated contrary to the randomization schedule.
# The safety and tolerability profile of HDP-CDV, including subject demographics and Baseline characteristics; the AE profile; and laboratory abnormalities of interest were analyzed in the cohorts followed in this investigation.
# Subjects completing the treatment period received a full course of study medication; those completing the entire study attended visits through 8 weeks of follow up. Subjects who discontinued treatment may have done so for protocol specified reasons (e.g. development of clinically significant CMV infection requiring preemptive treatment with excluded anti-CMV medications) or for other reasons (e.g., withdrawal, adverse events, loss to follow-up). The disposition of subjects in Study HDP-CDV-201 during the double-blind, placebo-controlled treatment period (through Week 11) is listed by dosing Cohort in TABLE 23.
# Adverse events were examined by severity to ensure that all safety signals were identified in this study population. Because of the frequency of events in HSCT recipients, particular attention was given to evaluation of Grade 3 […], 4 (severe), and 5 (fatal) adverse events.
# Only those preferred terms for which at least one Grade 3 or higher event was experienced in any treatment group are listed. Cytomegalovirus-related AEs are excluded from this analysis.
# HDP-CDV is a lipid conjugate of CDV. Because CDV is known to have adverse effects on renal function and bone marrow, decreased GFR and persistent neutropenia were identified as AEs of special interest. Key renal and hematological (TABLE 30) laboratory parameters were measured and listed below by Study HDP-CDV-201 treatment groups. TABLE 30 includes abnormal levels of serum creatinine, neutrophils, platelets, WBCs, and hemoglobin and includes data at Screening and during the treatment period.
# A common metric for unit based dosing of medications is by weight (mg/kg). When the distribution of weights was examined for all subjects participating in the study, the median was 78 kg and the lower 25th percentile weight was approximately 65 kg, which translates to a cut-off of ˜3 mg/kg for a 200 mg total weekly dose. Based upon this approach, a cut-off of 3 mg/kg was used to assess the frequency of diarrhea and associated GI AEs reported for the subjects in Cohorts 3 or 4a (TABLE 40).
smiles,measurement,setting,value
CCCCCCCCCCCCCCCCOCCCOP(=O)(O)COC(CO)Cn1ccc(N)nc1=O (stereo not drawn) [HDP-CDV],"Intensity of Gastrointestinal AEs, Grade 1, subjects",100 mg BIW,12 (24.0%)
same,"Intensity of Gastrointestinal AEs, Grade 2, subjects",100 mg BIW,17 (34.0%)
same,"Intensity of Gastrointestinal AEs, Grade 3, subjects",100 mg BIW,10 (20.0%)
same,"Intensity of Gastrointestinal AEs, Grade 4, subjects",100 mg BIW,1 (2.0%)
same,"Intensity of Gastrointestinal AEs, Grade 5, subjects",100 mg BIW,0
same,"Serum ALT level, Median fold increase from Baseline at Follow-up Week 1",100 mg BIW,1.52 fold
same,"Serum ALT level, Median fold increase from Baseline at Follow-up Week 4",100 mg BIW,1.11 fold
same,"Serum ALT level, Peak Median fold increase from Baseline",100 mg BIW,2.86 fold
same,Subjects completed study,100 mg BIW,25 (50.0%) n (%)
same,"TEAE Abdominal pain Grade 2, subjects",100 mg BIW,1 (2.0%)
same,"TEAE Abdominal pain Grade 3, subjects",100 mg BIW,1 (2.0%)
same,"TEAE Abdominal pain Grade 4, subjects",100 mg BIW,0
same,"TEAE Abdominal pain Grade 5, subjects",100 mg BIW,0
same,"TEAE Abdominal pain Overall Frequency, subjects",100 mg BIW,13 (26.0%)
same,"TEAE Diarrhea Grade 2, subjects",100 mg BIW,6 (12.0%)
same,"TEAE Diarrhea Grade 3, subjects",100 mg BIW,9 (18.0%)
same,"TEAE Diarrhea Grade 4, subjects",100 mg BIW,0
same,"TEAE Diarrhea Grade 5, subjects",100 mg BIW,0
same,"TEAE Diarrhea Overall Frequency, subjects",100 mg BIW,26 (52.0%)
same,"TEAE Hypokalaemia Grade 2, subjects",100 mg BIW,2 (4.0%)
same,"TEAE Hypokalaemia Grade 3, subjects",100 mg BIW,2 (4.0%)
same,"TEAE Hypokalaemia Grade 4, subjects",100 mg BIW,0
same,"TEAE Hypokalaemia Grade 5, subjects",100 mg BIW,0
same,"TEAE Hypokalaemia, subjects",100 mg BIW,8 (16.0%)
same,"TEAE Nausea Grade 2, subjects",100 mg BIW,9 (18.0%)
same,"TEAE Nausea Grade 3, subjects",100 mg BIW,2 (4.0%)
same,"TEAE Nausea Grade 4, subjects",100 mg BIW,0
same,"TEAE Nausea Grade 5, subjects",100 mg BIW,0
same,"TEAE Nausea Overall Frequency, subjects",100 mg BIW,17 (34.0%)
same,"TEAE Vomiting Grade 2, subjects",100 mg BIW,8 (16.0%)
same,"TEAE Vomiting Grade 3, subjects",100 mg BIW,2 (4.0%)
same,"TEAE Vomiting Grade 4, subjects",100 mg BIW,0
same,"TEAE Vomiting Grade 5, subjects",100 mg BIW,0
same,"TEAE Vomiting Overall Frequency, subjects",100 mg BIW,22 (44.0%)
same,"Total Bilirubin (Screening) >1-[…] ULN, subjects",100 mg BIW,3 (6.5%)
same,"Total Bilirubin (Screening) >1.5-3 × ULN, subjects",100 mg BIW,2 (4.3%)
same,"Total Bilirubin (Screening) >3-10 × ULN, subjects",100 mg BIW,0
same,"Total Bilirubin (Screening) >10 × ULN, subjects",100 mg BIW,0
same,"Total Bilirubin (any time during therapy) >1-[…] ULN, subjects",100 mg BIW,5 (10.0%)
same,"Total Bilirubin (any time during therapy) >1.5-3 × ULN, subjects",100 mg BIW,3 (6.0%)
same,"Total Bilirubin (any time during therapy) >3-10 × ULN, subjects",100 mg BIW,1 (2.0%)
same,"Total Bilirubin (any time during therapy) >10 × ULN, subjects",100 mg BIW,0
same,excess of subjects with severe diarrhea as compared to placebo,100 mg BIW,13%
same,incidence of diarrhea,100 mg BIW,52%
same,"TEAE Abdominal pain Grade 2, subjects",100 mg BIW >3 mg/k,0
same,"TEAE Abdominal pain Grade 3, subjects",100 mg BIW >3 mg/k,0
same,"TEAE Abdominal pain Grade 4, subjects",100 mg BIW >3 mg/k,0
same,"TEAE Abdominal pain Grade 5, subjects",100 mg BIW >3 mg/k,0
same,"TEAE Abdominal pain Overall Frequency, subjects",100 mg BIW >3 mg/k,4 (40%)
same,"TEAE Diarrhea Grade 2, subjects",100 mg BIW >3 mg/k,3 (30%)
same,"TEAE Diarrhea Grade 3, subjects",100 mg BIW >3 mg/k,3 (30%)
same,"TEAE Diarrhea Grade 4, subjects",100 mg BIW >3 mg/k,0
same,"TEAE Diarrhea Grade 5, subjects",100 mg BIW >3 mg/k,0
same,"TEAE Diarrhea Overall Frequency, subjects",100 mg BIW >3 mg/k,6 (60%)
same,"TEAE Hypokalaemia Grade 2, subjects",100 mg BIW >3 mg/k,1 (10%)
same,"TEAE Hypokalaemia Grade 3, subjects",100 mg BIW >3 mg/k,2 (20.0%)
same,"TEAE Hypokalaemia Grade 4, subjects",100 mg BIW >3 mg/k,0
same,"TEAE Hypokalaemia Grade 5, subjects",100 mg BIW >3 mg/k,0
same,"TEAE Hypokalaemia, subjects",100 mg BIW >3 mg/k,3 (30%)
same,"TEAE Nausea Grade 2, subjects",100 mg BIW >3 mg/k,3 (30%)
same,"TEAE Nausea Grade 3, subjects",100 mg BIW >3 mg/k,1 (10%)
same,"TEAE Nausea Grade 4, subjects",100 mg BIW >3 mg/k,0
same,"TEAE Nausea Grade 5, subjects",100 mg BIW >3 mg/k,0
same,"TEAE Nausea Overall Frequency, subjects",100 mg BIW >3 mg/k,4 (40%)
same,"TEAE Vomiting Grade 2, subjects",100 mg BIW >3 mg/k,4 (40.0%)
same,"TEAE Vomiting Grade 3, subjects",100 mg BIW >3 mg/k,1 (10.0%)
same,"TEAE Vomiting Grade 4, subjects",100 mg BIW >3 mg/k,0
same,"TEAE Vomiting Grade 5, subjects",100 mg BIW >3 mg/k,0
same,"TEAE Vomiting Overall Frequency, subjects",100 mg BIW >3 mg/k,6 (60%)
same,"TEAE Abdominal pain Grade 2, subjects",100 mg BIW ≦3 mg/kg,1 (2.5%)
same,"TEAE Abdominal pain Grade 3, subjects",100 mg BIW ≦3 mg/kg,1 (2.5%)
same,"TEAE Abdominal pain Grade 4, subjects",100 mg BIW ≦3 mg/kg,0
same,"TEAE Abdominal pain Grade 5, subjects",100 mg BIW ≦3 mg/kg,0
same,"TEAE Abdominal pain Overall Frequency, subjects",100 mg BIW ≦3 mg/kg,9 (22.5%)
same,"TEAE Diarrhea Grade 2, subjects",100 mg BIW ≦3 mg/kg,3 (7.5%)
same,"TEAE Diarrhea Grade 3, subjects",100 mg BIW ≦3 mg/kg,6 (15%)
same,"TEAE Diarrhea Grade 4, subjects",100 mg BIW ≦3 mg/kg,0
same,"TEAE Diarrhea Grade 5, subjects",100 mg BIW ≦3 mg/kg,0
same,"TEAE Diarrhea Overall Frequency, subjects",100 mg BIW ≦3 mg/kg,20 (50%)^
same,"TEAE Hypokalaemia Grade 2, subjects",100 mg BIW ≦3 mg/kg,1 (2.5%)
same,"TEAE Hypokalaemia Grade 3, subjects",100 mg BIW ≦3 mg/kg,0
same,"TEAE Hypokalaemia Grade 4, subjects",100 mg BIW ≦3 mg/kg,0
same,"TEAE Hypokalaemia Grade 5, subjects",100 mg BIW ≦3 mg/kg,0
same,"TEAE Hypokalaemia, subjects",100 mg BIW ≦3 mg/kg,5 (12.5%)
same,"TEAE Nausea Grade 2, subjects",100 mg BIW ≦3 mg/kg,6 (15%)
same,"TEAE Nausea Grade 3, subjects",100 mg BIW ≦3 mg/kg,1 (2.5%)
same,"TEAE Nausea Grade 4, subjects",100 mg BIW ≦3 mg/kg,0
same,"TEAE Nausea Grade 5, subjects",100 mg BIW ≦3 mg/kg,0
same,"TEAE Nausea Overall Frequency, subjects",100 mg BIW ≦3 mg/kg,13 (32.5%)
same,"TEAE Vomiting Grade 2, subjects",100 mg BIW ≦3 mg/kg,4 (10%)
same,"TEAE Vomiting Grade 3, subjects",100 mg BIW ≦3 mg/kg,1 (2.5%)
same,"TEAE Vomiting Grade 4, subjects",100 mg BIW ≦3 mg/kg,0
same,"TEAE Vomiting Grade 5, subjects",100 mg BIW ≦3 mg/kg,0
same,"TEAE Vomiting Overall Frequency, subjects",100 mg BIW ≦3 mg/kg,16 (40%)^
same,Abdominal pain leading to study drug withdrawal,"100 mg BIW, N = 50",1 (2.0%)
same,All AEs leading to withdrawal,"100 mg BIW, N = 50",18 (36.0%)
same,Diarrhoea leading to study drug withdrawal,"100 mg BIW, N = 50",2 (4.0%)
same,Dyspepsia leading to study drug withdrawal,"100 mg BIW, N = 50",0%
same,Nausea leading to study drug withdrawal,"100 mg BIW, N = 50",1 (2.0%)
same,TEAE ALT increased,"100 mg BIW, N = 50",9 (18.0%) n (%)
same,TEAE AST increased,"100 mg BIW, N = 50",5 (10.0%) n (%)
same,TEAE Abdominal pain,"100 mg BIW, N = 50",13 (26.0%) n (%)
same,"TEAE Abdominal pain, Upper","100 mg BIW, N = 50",2 (4.0%) n (%)
same,TEAE Acute GVHD,"100 mg BIW, N = 50",32 (64.0%) n (%)
same,TEAE Acute Myeloid Leukemia recurrent,"100 mg BIW, N = 50",3 (6.0%) n (%)
same,TEAE Acute Renal Failure,"100 mg BIW, N = 50",1 (2.0%) n (%)
same,TEAE Anxiety,"100 mg BIW, N = 50",3 (6.0%) n (%)
same,TEAE Arthralgias,"100 mg BIW, N = 50",3 (6.0%) n (%)
same,TEAE Back Pain,"100 mg BIW, N = 50",4 (8.0%) n (%)
same,TEAE Blood lactate dehydrogenase increased,"100 mg BIW, N = 50",4 (8.0%) n (%)
same,TEAE Creatinine increased,"100 mg BIW, N = 50",7 (14.0%) n (%)

# From patent US20140303092A1 (CHIMERIX, INC., priority 2011, published 2014)
